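The compound was tested at five concentrations on cells cultured in 96-well plates, with a 48-hour exposure period. Abbreviation: GI50, concentration required for 50% inhibition of growth. TGI denotes the concentration required for complete inhibition of growth.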
Columns and labels:
Assay in all cases: inhibition of tumour cell growth, NCI panel, 48 h
[1] = tested on: CCRF-CEM leukemia
[2] = tested on: DU-145 prostate
[3] = tested on: HCT-116 colon
[4] = tested on: K-562 leukemia
[5] = tested on: MALME-3M melanoma
[6] = tested on: MOLT-4 leukemia
[7] = tested on: NCI-H522 lung
[8] = tested on: OVCAR-5 ovarian
[9] = tested on: SF-295 CNS
[10] = tested on: SN12C renal

SMILES	TGI [1] [µM]	TGI [2] [µM]	TGI [3] [µM]	TGI [4] [µM]	TGI [5] [µM]	TGI [6] [µM]	TGI [7] [µM]	TGI [8] [µM]	TGI [9] [µM]	TGI [10] [µM]	GI50 [1] [µM]	GI50 [2] [µM]	GI50 [3] [nM]	GI50 [4] [nM]	GI50 [5] [µM]	GI50 [6] [µM]	GI50 [7] [nM]	GI50 [8] [µM]	GI50 [9] [nM]	GI50 [10] [µM]
Cc1ccc([N+](=O)[O-])c2c(NCCCN(C)C)ccnc12	> 100	> 100	> 100	> 100	44.8	> 100	55.8	> 100	> 100	> 100	–	–	–	–	–	–	–	–	–	–
C=CC(=O)Nc1cccc(Nc2nc(Nc3ccc(OCCOC)cc3)ncc2F)c1	> 63.1	13.7	13.1	> 100	20.9	33.6	8.14	21	14	31.4	4.06	1.55	1820	4800	3.08	3.97	1780	1.89	2950	1.77
Oc1ccc(Cc2ccccc2)c2cccnc12	5.44	> 100	21.5	> 100	31.6	93.8	76	> 100	20.5	> 100	0.423	2.58	1790	836	2.96	1.41	3690	4.73	1340	2.61
CCCSc1cc(Cl)nc(N)n1	> 100	> 100	> 100	> 100	> 100	> 100	> 100	> 100	> 100	> 100	> 100	> 100	> 100000	> 100000	> 100	94.8	> 100000	> 100	> 100000	> 100
N#Cc1c(-c2ccccc2)nc2c(c(-c3ccccc3)nn2-c2ccccc2)c1-c1ccc(O)cc1	13.4	8.53	7.32	> 100	3.83	7.86	6.03	3.41	4.29	3.04	3.13	2.62	2630	2680	1.62	2.48	2320	1.75	1880	1.64
CN1CCN(Cc2ccc(NC(=O)c3ccc(C(C)(C)C)c(C#Cc4cnc5cccnn45)c3)cc2C(F)(F)F)CC1	4.63	3.39	3.08	2.6	3.97	4	3.95	7.18	3.96	26.4	1.93	1.89	1670	932	1.78	1.77	2200	2.71	1970	9.62
CCn1c(-c2nonc2N)nc2ccc(F)cc21	> 25	> 25	> 25	> 25	> 25	> 25	> 25	> 25	> 25	> 25	> 25	> 25	> 25000	> 25000	> 25	> 25	> 25000	> 25	> 25000	> 25
CC(=O)[CH-]C(C)=O.CC(=O)[CH-]C(C)=O.N=CC=N.[Sn+2]	13.3	11.2	3.42	13	4.24	7.47	2.13	19.2	23.3	9.14	1.51	2.77	1720	2190	2.02	2.03	911	7.29	10400	2.9
CCCCCCNc1nc(NCCCCCC)c2[nH]c(NCCCCCC)nc2n1	35.6	25.4	3.46	25.1	16.1	35.4	7.68	24.7	31.3	17.6	4.95	12.8	1340	7020	4.5	3.12	2140	9.31	12800	3.75
Cn1c(N)nc2c(nc(OCc3ccccc3)n2C2OC(CO)C(O)C2O)c1=O (configuration not stated)	> 100	> 100	> 100	> 100	> 100	> 100	> 100	> 100	> 100	> 100	–	–	–	–	–	–	–	–	–	–
COc1ccccc1C(=O)c1ccc2ccccc2c1	> 100	> 100	> 100	> 100	42.6	34	21.5	> 100	79.8	> 100	–	–	–	–	–	–	–	–	–	–
Cc1sc(C)c(-c2ccc(CO)o2)c1-c1ccc(CO)o1	> 100	> 100	> 100	> 100	> 100	> 100	> 100	–	> 100	> 100	49.1	> 100	69.5	622	> 100	48.9	41900	–	276	96.6
CNC(=O)c1ccc(-c2cnc3ncc(Cc4ccc5ncccc5c4)n3n2)cc1F	> 100	> 100	> 100	> 100	> 100	> 100	> 100	> 100	> 100	> 100	> 100	> 100	> 100000	> 100000	62.7	> 100	38000	> 100	22100	> 100
CS(=O)(=O)Nc1ccc(-c2ccc3c(NC(=O)C4CC4)n[nH]c3c2)cc1	> 25	> 25	> 25	> 25	> 25	> 25	> 25	> 25	> 25	> 25	24.2	> 23.8	> 25000	13300	> 23.1	> 15.7	> 25000	> 25	> 25000	> 25
Cc1ccc2/c(=C/c3ccc(N(C)C)cc3)c3cc(-c4ccccc4)[n+](C)n3c2c1	–	4.37	> 100	> 100	1.17	> 100	> 100	4.74	3.31	–	0.0269	0.0473	40.6	< 25.5	0.0285	0.0383	54.7	0.456	352	–
CNc1nc(NC2CCCC2)nc(Sc2ccc(OC)cc2)n1	> 10	> 10	> 10	> 10	> 10	> 10	> 10	> 10	> 10	> 10	> 10	> 10	> 10000	> 10000	> 10	> 10	> 10000	> 10	> 10000	> 10
COC(=O)c1c(O)ccc2[nH]c(C)c(C#N)c12	–	> 100	61.5	> 100	94	> 100	> 100	> 100	92.9	> 100	–	> 100	22000	55300	47.9	26.7	83400	> 100	27400	49
C=CC(=O)N1CCN(c2ncnc3c(F)c(-c4c(O)cccc4F)c(Cl)cc23)CC1	> 100	23.6	23.1	> 100	24.8	56.9	35.1	34.1	35.3	31.3	9.79	10.6	9190	21200	11.5	7.04	15600	18.4	15200	13.9
COc1ccc2c(-c3cc4ccccc4o3)cc(=O)oc2c1	> 100	> 100	> 100	> 100	> 100	> 100	> 91.8	> 100	79.7	> 100	–	–	–	–	–	–	–	–	–	–
O=C(Nc1cc(-c2ccccc2)[nH]n1)c1ccc(Cl)cc1	–	> 100	> 100	–	> 100	–	–	> 100	> 100	> 100	–	6.96	9220	–	12.1	–	–	> 100	1910	> 100
NCCN1CCN(c2nccc(-c3ccc4ccccc4c3)n2)CC1	4.37	3.42	3.3	4.09	3.52	4.44	3.84	4.04	3.34	3.81	1.85	1.85	1790	2090	1.83	2.05	1970	1.85	1680	1.71
CNC(=O)c1cn(C[C@H](F)CCc2ccc(NC(=O)Cc3cc(OC4CC(F)(F)C4)cc(C)n3)nn2)nn1	> 100	> 100	> 100	> 100	> 100	> 100	> 100	> 100	> 100	> 100	> 45.8	> 100	> 100000	> 100000	> 100	> 93.5	5180	> 100	> 100000	–
COc1cc(/C=C2\CC3C4CC=C5CC(N6CCCC6)CC[C@]5(C)C4CC[C@]3(C)C2OC(C)=O)ccc1OCCN1CCCC1 (some centres not stated)	4.87	> 100	2.87	3.19	3.07	4.48	3.25	7.09	26.5	15.7	1.95	3.52	1540	1040	1.49	2.18	1690	3.01	12700	4.01
COc1ccc2c(c1)[C@@]13CCN4CC5=CCO[C@H]6CC(=O)N2[C@H]1[C@H]6[C@H]5C[C@H]43	> 100	> 100	> 100	–	> 100	> 100	> 100	> 100	> 100	> 100	–	–	–	–	–	–	–	–	–	–
COC(=O)NC/C=C\c1nc(CC/C=C\C(=O)OC2CC3CC(=O)O[C@@H](/C=C/CC(C)C)C[C@@H]4CCC(C)C(C[C@@H](OC)CC(C2)O3)O4)co1 (some centres not stated)	–	> 100	57.5	12.2	93.4	–	87.7	> 100	73.8	–	–	4.59	< 10	< 10	25.5	–	< 10	< 0.01	< 10	–
Nc1ccc(SC23CC4CC(CC(C4)C2)C3)cc1	> 100	> 100	> 100	> 100	> 100	–	> 100	> 100	> 100	> 100	–	–	–	–	–	–	–	–	–	–
C=CCOc1c(Br)cc(Br)cc1Br	> 100	> 100	66.2	> 100	–	99.1	30.7	> 100	9.53	> 100	10.4	58.5	11400	7920	–	14.7	4680	28.2	2710	30
CNC(=O)c1cc(Oc2ccc(NC(=O)Nc3ccc(Cl)c(OC(F)(F)F)c3)c(F)c2)ccn1	> 33.2	> 33.2	8.08	8.22	–	8.64	14.8	> 33.2	5.25	23	1.94	4.24	1150	1220	–	1.19	971	3.93	1100	2.05
